In patent US6486098B1, “Herbicidal phenoxypropionic acid N-alkyl-N-2-fluorophenyl amide compounds” (Dongbu Hannong Chemical Co. Ltd., priority 1999, dated 2002):

Legend:
TRZAW (Wheat) = assay: Leaf treatment test, wheat; type: in vivo, Triticum aestivum L.; settings: 14 days after treatment
Description: (§1) Seeds of rice, wheat, barley, corn, cotton, barnyard grass, common sorgum, large crabgrass and fall panicum were seeded at a pot with a surface area of 600 cm^2. […] 14 days after the treatment, the degree of damage to the plants was rated in % damage in comparison to the development of untreated control.

PANDI (Fall panicum) = assay: Leaf treatment test, fall panicum; type: in vivo, Panicum dichotomiflorum Michx; settings: 14 days after treatment
Description: as §1

ECHCG (Barnyard grass) = assay: Leaf treatment test, barnyard grass; type: in vivo, Echinochloa crus-galli Beauv. var. caudata Kitagawa; settings: leaf treatment at three leaves, 14 days after treatment
Description: as §1

SORBI (Common sorgum) = assay: Leaf treatment test, common sorgum; type: in vivo, Andropogon sorghum; settings: 14 days after treatment
Description: as §1

GLXMA (Soy bean) = assay: Leaf treatment test, soy bean; type: in vivo, Glycine max (L.) MERR; settings: 14 days after treatment
ZEAMX (Corn) = assay: Leaf treatment test, corn; type: in vivo, Zea mays L.; settings: 14 days after treatment
Description: as §1

ORYSA (Rice) = assay: Leaf treatment test, rice; type: in vivo, Oryza sativa L. cv. Dongjin; settings: 14 days after treatment
Description: as §1

GOSHI (Cotton) = assay: Leaf treatment test, cotton; type: in vivo, Gossypium; settings: 14 days after treatment
Description: as §1

DIGSA (Large crabgrass) = assay: Leaf treatment test, large crabgrass; type: in vivo, Digitaria Sanguinalis (L.) SCOP; settings: 14 days after treatment
Description: as §1

SMILES	degree of damage to the plants (% damage) (TRZAW (Wheat); treated amount 0.025 kg/ha) [%]	degree of damage to the plants (% damage) (TRZAW (Wheat); treated amount 0.1 kg/ha) [%]	degree of damage to the plants (% damage) (TRZAW (Wheat); treated amount 0.4 kg/ha) [%]	degree of damage to the plants (% damage) (PANDI (Fall panicum); treated amount 0.025 kg/ha) [%]	degree of damage to the plants (% damage) (PANDI (Fall panicum); treated amount 0.1 kg/ha) [%]	degree of damage to the plants (% damage) (PANDI (Fall panicum); treated amount 0.4 kg/ha) [%]	degree of damage to the plants (% damage) (ECHCG (Barnyard grass); treated amount 0.025 kg/ha) [%]	degree of damage to the plants (% damage) (ECHCG (Barnyard grass); treated amount 0.1 kg/ha) [%]	degree of damage to the plants (% damage) (ECHCG (Barnyard grass); treated amount 0.4 kg/ha) [%]	degree of damage to the plants (% damage) (SORBI (Common sorgum); treated amount 0.025 kg/ha) [%]	degree of damage to the plants (% damage) (SORBI (Common sorgum); treated amount 0.1 kg/ha) [%]	degree of damage to the plants (% damage) (SORBI (Common sorgum); treated amount 0.4 kg/ha) [%]	degree of damage to the plants (% damage) (GLXMA (Soy bean); treated amount 0.025 kg/ha) [%]	degree of damage to the plants (% damage) (GLXMA (Soy bean); treated amount 0.1 kg/ha) [%]	degree of damage to the plants (% damage) (GLXMA (Soy bean); treated amount 0.4 kg/ha) [%]	degree of damage to the plants (% damage) (ZEAMX (Corn); treated amount 0.025 kg/ha) [%]	degree of damage to the plants (% damage) (ZEAMX (Corn); treated amount 0.1 kg/ha) [%]	degree of damage to the plants (% damage) (ZEAMX (Corn); treated amount 0.4 kg/ha) [%]	degree of damage to the plants (% damage) (ORYSA (Rice); treated amount 0.025 kg/ha) [%]	degree of damage to the plants (% damage) (ORYSA (Rice); treated amount 0.1 kg/ha) [%]	further results
CCN(C(=O)C(C)Oc1ccc(Oc2nc3ccc(Cl)cc3o2)cc1)c1ccccc1F (stereo not drawn) [Compound No. 2]	0	0	0	0	100	100	20	80	95	40	95	100	0	0	10	5	10	70	0	0	degree of damage to the plants (% damage) (ORYSA (Rice); treated amount 0.4 kg/ha): 0%; degree of damage to the plants (% damage) (GOSHI (Cotton); treated amount 0.025 kg/ha): 0%; degree of damage to the plants (% damage) (GOSHI (Cotton); treated amount 0.1 kg/ha): 0%; degree of damage to the plants (% damage) (GOSHI (Cotton); treated amount 0.4 kg/ha): 0%; degree of damage to the plants (% damage) (DIGSA (Large crabgrass); treated amount 0.025 kg/ha): 30%; degree of damage to the plants (% damage) (DIGSA (Large crabgrass); treated amount 0.1 kg/ha): 95%; degree of damage to the plants (% damage) (DIGSA (Large crabgrass); treated amount 0.4 kg/ha): 100%
CC(Oc1ccc(Oc2nc3ccc(Cl)cc3o2)cc1)C(=O)N(C)c1cc(F)c(F)cc1F (stereo not drawn) [Compound No. 3, 2-[4-(6-Chloro-2-benzoxazoyloxy)-phenoxy]propionic Acid-N-methyl-N-(2,4,5-trifluorophenyl)amide]	0	0	0	0	0	0	0	60	95	40	100	100	0	0	10	0	0	0	0	0	degree of damage to the plants (% damage) (ORYSA (Rice); treated amount 0.4 kg/ha): 10%; degree of damage to the plants (% damage) (GOSHI (Cotton); treated amount 0.025 kg/ha): 0%; degree of damage to the plants (% damage) (GOSHI (Cotton); treated amount 0.1 kg/ha): 0%; degree of damage to the plants (% damage) (GOSHI (Cotton); treated amount 0.4 kg/ha): 0%; degree of damage to the plants (% damage) (DIGSA (Large crabgrass); treated amount 0.025 kg/ha): 30%; degree of damage to the plants (% damage) (DIGSA (Large crabgrass); treated amount 0.1 kg/ha): 90%; degree of damage to the plants (% damage) (DIGSA (Large crabgrass); treated amount 0.4 kg/ha): 100%
CC(Oc1ccc(Oc2nc3ccc(Cl)cc3o2)cc1)C(=O)N(C)c1c(F)cccc1F (stereo not drawn) [Compound No. 4, 2-[4-(6-Chloro-2-benzoxazoyloxy)-phenoxy]propionic Acid-N-methyl-N-(2,6-difluoro-phenyl)amide]	0	0	0	40	100	100	80	95	100	95	100	100	0	0	20	10	40	100	0	20	degree of damage to the plants (% damage) (ORYSA (Rice); treated amount 0.4 kg/ha): 30%; degree of damage to the plants (% damage) (GOSHI (Cotton); treated amount 0.025 kg/ha): 0%; degree of damage to the plants (% damage) (GOSHI (Cotton); treated amount 0.1 kg/ha): 0%; degree of damage to the plants (% damage) (GOSHI (Cotton); treated amount 0.4 kg/ha): 0%; degree of damage to the plants (% damage) (DIGSA (Large crabgrass); treated amount 0.025 kg/ha): 90%; degree of damage to the plants (% damage) (DIGSA (Large crabgrass); treated amount 0.1 kg/ha): 100%; degree of damage to the plants (% damage) (DIGSA (Large crabgrass); treated amount 0.4 kg/ha): 100%
CC(Oc1ccc(Oc2nc3ccc(Cl)cc3o2)cc1)C(=O)N(C)c1ccc(F)cc1F (stereo not drawn) [Compound No. 5, 2-[4-(6-Chloro-2-benzoxazoyloxy)-phenoxy]propionic Acid-N-(2,4-difluorophenyl)-N-methyl Amide]	0	0	0	40	80	100	0	100	100	100	100	100	0	0	0	0	30	100	0	0	degree of damage to the plants (% damage) (ORYSA (Rice); treated amount 0.4 kg/ha): 0%; degree of damage to the plants (% damage) (GOSHI (Cotton); treated amount 0.025 kg/ha): 0%; degree of damage to the plants (% damage) (GOSHI (Cotton); treated amount 0.1 kg/ha): 0%; degree of damage to the plants (% damage) (GOSHI (Cotton); treated amount 0.4 kg/ha): 0%; degree of damage to the plants (% damage) (DIGSA (Large crabgrass); treated amount 0.025 kg/ha): 100%; degree of damage to the plants (% damage) (DIGSA (Large crabgrass); treated amount 0.1 kg/ha): 100%; degree of damage to the plants (% damage) (DIGSA (Large crabgrass); treated amount 0.4 kg/ha): 100%
CC(Oc1ccc(Oc2nc3ccc(Cl)cc3o2)cc1)C(=O)N(C)c1c(F)ccc(F)c1F (stereo not drawn) [Compound No. 6, 2-[4-(6-Chloro-2-benzoxazoyloxy)-phenoxy]propionic Acid-N-methyl-N-(2,3,6-trifluorophenyl)amide]	0	0	0	40	100	100	95	100	100	100	100	100	0	0	0	30	100	100	0	0	degree of damage to the plants (% damage) (ORYSA (Rice); treated amount 0.4 kg/ha): 20%; degree of damage to the plants (% damage) (GOSHI (Cotton); treated amount 0.025 kg/ha): 0%; degree of damage to the plants (% damage) (GOSHI (Cotton); treated amount 0.1 kg/ha): 0%; degree of damage to the plants (% damage) (GOSHI (Cotton); treated amount 0.4 kg/ha): 0%; degree of damage to the plants (% damage) (DIGSA (Large crabgrass); treated amount 0.025 kg/ha): 40%; degree of damage to the plants (% damage) (DIGSA (Large crabgrass); treated amount 0.1 kg/ha): 100%; degree of damage to the plants (% damage) (DIGSA (Large crabgrass); treated amount 0.4 kg/ha): 100%
